Reference: ChEMBL document CHEMBL1201862, “PubChem BioAssay data set” (2004)
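Cultured in 96-well plates, cells were exposed to test compound for 48 hours across five concentrations. At the GI50, growth is halved.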 Active and inactive are the calls of the source. Cut-off read from the data, not from the text of the source: active = GI50 up to about 1.1 µM and inactive = higher.

Columns and labels:
Assay in all cases: growth of human tumour cells (NCI), 48 h
NCI-H23 = test system: NCI-H23
OVCAR-8 = test system: OVCAR-8
DMS-114 = test system: DMS-114
HT-29 = test system: HT-29
A498 = test system: A498
HOP-62 = test system: HOP-62
OVCAR-5 = test system: OVCAR-5
K562 = test system: K562
UACC-257 = test system: UACC-257
RPMI-8226 = test system: RPMI-8226
HL-60 = test system: HL-60
SF-268 = test system: SF-268
NCI-H460 = test system: NCI-H460
UO-31 = test system: UO-31
DMS-273 = test system: DMS-273
SK-MEL-2 = test system: SK-MEL-2
SK-OV-3 = test system: SK-OV-3
RXF 393 = test system: RXF 393
SF-539 = test system: SF-539
SN12C = test system: SN12C
UACC-62 = test system: UACC-62
LOX IMVI = test system: LOX IMVI
NCI-H522 = test system: NCI-H522
OVCAR-4 = test system: OVCAR-4
MCF7 = test system: MCF7
SK-MEL-28 = test system: SK-MEL-28
M19-MEL = test system: M19-MEL
HOP-18 = test system: HOP-18
KM-20L2 = test system: KM-20L2
CCRF-CEM = test system: CCRF-CEM
HOP-92 = test system: HOP-92
SW-620 = test system: SW-620
HCT-116 = test system: HCT-116
EKVX = test system: EKVX
XF498 = test system: XF498
SK-MEL-5 = test system: SK-MEL-5
U-251 = test system: U-251
SNB-78 = test system: SNB-78
COLO 205 = test system: COLO 205
Malme-3M = test system: Malme-3M
HCT-15 = test system: HCT-15
NCI-H226 = test system: NCI-H226
MOLT-4 = test system: MOLT-4
SF-295 = test system: SF-295
NCI/ADR-RES = test system: NCI/ADR-RES
SNB-19 = test system: SNB-19
KM12 = test system: KM12
A549 = test system: A549
OVCAR-3 = test system: OVCAR-3
IGROV-1 = test system: IGROV-1
DLD-1 = test system: DLD-1
SNB-75 = test system: SNB-75
HCC 2998 = test system: HCC 2998
CAKI-1 = test system: CAKI-1

COc1cc(/C=C/C(=O)O)ccc1C(=O)O/C=C/c1ccccc1
GI50 (NCI-H23): > 100 µM (inactive)
GI50 (OVCAR-8): > 67.5 µM (inactive)
GI50 (DMS-114): > 100 µM (inactive)
GI50 (HT-29): > 100 µM (inactive)
GI50 (A498): > 85.3 µM (inactive)
GI50 (HOP-62): > 100 µM (inactive)
GI50 (OVCAR-5): > 100 µM (inactive)
GI50 (K562): > 100 µM (inactive)
GI50 (UACC-257): > 100 µM (inactive)
GI50 (RPMI-8226): > 100 µM (inactive)
GI50 (HL-60): 45.3 µM (inactive)
GI50 (SF-268): > 100 µM (inactive)
GI50 (NCI-H460): > 100 µM (inactive)
GI50 (UO-31): > 66.7 µM (inactive)
GI50 (DMS-273): > 100 µM (inactive)
GI50 (SK-MEL-2): > 100 µM (inactive)
GI50 (SK-OV-3): > 100 µM (inactive)
GI50 (RXF 393): > 100 µM (inactive)
GI50 (SF-539): > 100 µM (inactive)
GI50 (SN12C): > 100 µM (inactive)
GI50 (UACC-62): > 100 µM (inactive)
GI50 (LOX IMVI): 73.1 µM (inactive)
GI50 (NCI-H522): > 61.9 µM (inactive)
GI50 (OVCAR-4): > 100 µM (inactive)
GI50 (MCF7): 73.5 µM (inactive)
GI50 (SK-MEL-28): > 100 µM (inactive)
GI50 (M19-MEL): > 81.7 µM (inactive)
GI50 (HOP-18): > 100 µM (inactive)
GI50 (KM-20L2): > 100 µM (inactive)
GI50 (CCRF-CEM): 60.7 µM (inactive)
GI50 (HOP-92): > 100 µM (inactive)
GI50 (SW-620): > 100 µM (inactive)
GI50 (HCT-116): > 72.8 µM (inactive)
GI50 (EKVX): > 100 µM (inactive)
GI50 (XF498): > 100 µM (inactive)
GI50 (SK-MEL-5): > 100 µM (inactive)
GI50 (U-251): > 100 µM (inactive)
GI50 (SNB-78): > 100 µM (inactive)
GI50 (COLO 205): > 100 µM (inactive)
GI50 (Malme-3M): > 100 µM (inactive)
GI50 (HCT-15): 99.8 µM
GI50 (NCI-H226): > 100 µM (inactive)
GI50 (MOLT-4): 65.9 µM (inactive)
GI50 (SF-295): > 100 µM (inactive)
GI50 (NCI/ADR-RES): > 100 µM (inactive)
GI50 (SNB-19): > 100 µM (inactive)
GI50 (KM12): > 100 µM (inactive)
GI50 (A549): > 100 µM (inactive)
GI50 (OVCAR-3): > 100 µM (inactive)
GI50 (IGROV-1): > 100 µM (inactive)
GI50 (DLD-1): > 100 µM (inactive)
GI50 (SNB-75): 67 µM (inactive)

O=C1C2=C(C3=NCCc4c[nH]c1c43)C1(C=C(Br)C(O)C(Br)=C1)CCN2 (stereo not given)
GI50 (NCI-H23): 0.792 µM (active)
GI50 (OVCAR-8): 0.647 µM (active)
GI50 (DMS-114): 0.202 µM (active)
GI50 (HT-29): 0.312 µM (active)
GI50 (A498): 9.95 µM (inactive)
GI50 (HOP-62): 17.9 µM (inactive)
GI50 (OVCAR-5): 2.65 µM (inactive)
GI50 (K562): 2.3 µM (inactive)
GI50 (UACC-257): 0.614 µM (active)
GI50 (RPMI-8226): 1.9 µM (inactive)
GI50 (HL-60): 0.558 µM (active)
GI50 (SF-268): 0.966 µM (active)
GI50 (NCI-H460): 2.33 µM (inactive)
GI50 (UO-31): 11.1 µM (inactive)
GI50 (DMS-273): 1.03 µM (active)
GI50 (SK-MEL-2): 3.2 µM (inactive)
GI50 (SK-OV-3): 13.3 µM (inactive)
GI50 (RXF 393): 2.56 µM (inactive)
GI50 (SF-539): 2.05 µM (inactive)
GI50 (SN12C): 1.29 µM (inactive)
GI50 (UACC-62): 0.851 µM (active)
GI50 (LOX IMVI): 0.736 µM (active)
GI50 (NCI-H522): 0.284 µM (active)
GI50 (OVCAR-4): 1.47 µM (inactive)
GI50 (MCF7): 0.433 µM (active)
GI50 (SK-MEL-28): 7.69 µM (inactive)
GI50 (M19-MEL): 0.38 µM (active)
GI50 (HOP-18): 10.7 µM (inactive)
GI50 (KM-20L2): 0.317 µM (active)
GI50 (CCRF-CEM): 1.96 µM (inactive)
GI50 (HCC 2998): 1.18 µM (inactive)
GI50 (HOP-92): 2.92 µM (inactive)
GI50 (SW-620): 0.541 µM (active)
GI50 (HCT-116): 0.625 µM (active)
GI50 (EKVX): 1.07 µM (active)
GI50 (XF498): 7.67 µM (inactive)
GI50 (SK-MEL-5): 1.07 µM (active)
GI50 (U-251): 2.26 µM (inactive)
GI50 (SNB-78): 2.79 µM (inactive)
GI50 (COLO 205): 0.115 µM (active)
GI50 (CAKI-1): 4.4 µM (inactive)
GI50 (HCT-15): 1.16 µM
GI50 (NCI-H226): 3.4 µM (inactive)
GI50 (MOLT-4): 0.721 µM (active)
GI50 (SF-295): 2.48 µM (inactive)
GI50 (NCI/ADR-RES): 0.421 µM (active)
GI50 (SNB-19): 11.1 µM (inactive)
GI50 (KM12): 1.82 µM (inactive)
GI50 (A549): 3.15 µM (inactive)
GI50 (OVCAR-3): 1.03 µM (active)
GI50 (IGROV-1): 0.881 µM (active)
GI50 (DLD-1): 1.67 µM (inactive)
GI50 (SNB-75): 10 µM (inactive)
